The record followed here is ChEMBL document CHEMBL1275357, “Inhibition of Helicobacter pylori aminoacyl-tRNA amidotransferase by chloramphenicol analogs” (Bioorg Med Chem, 2010).

The term Ki denotes a measure of affinity in units of concentration, obtained from inhibition or displacement.

The nature of the assay: Competitive inhibition of Helicobacter pylori aminoacyl-tRNA […] GatCAB.
Compound `CS(=O)(=O)CC[C@H](N)C(=O)N[C@H](CO)[C@@H](O)c1ccc([N+](=O)[O-])cc1` registered a Ki of 2800 µM.
Then `CN(C)c1ncnc2c1ncn2[C@@H]1O[C@H](CO)[C@@H](NC(=O)[C@@H](N)CCS(C)(=O)=O)[C@H]1O`, with 4 µM; and `CS(=O)(=O)CC[C@H](N)C(=O)N[C@H](CO)[C@H](O)c1ccc(S(C)(=O)=O)cc1`, with 120 µM; and `CS(=O)(=O)CC[C@H](N)C(=O)N[C@@H](CO)[C@H](O)c1ccc([N+](=O)[O-])cc1`, with 370 µM.
The compound `O=C(N[C@H](CO)[C@H](O)c1ccc([N+](=O)[O-])cc1)C(Cl)Cl` [CHLORAMPHENICOL] registered an inhibition constant (Ki) of 1850 µM.
The compound `CS(=O)(=O)CC[C@H](N)C(=O)N[C@@H](CO)[C@@H](O)c1ccc([N+](=O)[O-])cc1` had a Ki of 160 µM.
With `CS(=O)(=O)CC[C@H](N)C(=O)N[C@H](CO)[C@H](O)c1ccccc1`, the inhibition constant (Ki) was 400 µM.
Regarding `CS(=O)(=O)CC[C@H](N)C(=O)N[C@H](CO)[C@H](O)c1ccc([N+](=O)[O-])cc1`, the Ki turned out to be 27 µM.
